Measurements as given in a melting point compilation (Tetko et al.; mined from patent text by program, amines drawn as free bases though some values may be those of a salt).

Row | SMILES | melting point [°C]
1 | Cc1ccc(-c2csc(NS(=O)(=O)c3ccc(C)cc3)n2)cc1 | 186 to 189
2 | Cc1ccccc1NC(=O)CN1CCN(c2ncccc2C#N)CC1 | 123 to 125
3 | O=P(O)(O)CN(CP(=O)(O)O)c1ccccc1 | 130 to 131
4 | O=C(CCCCC(=O)NC1CCc2ccccc21)NC1CCc2ccccc21 (centres undefined) | 227
5 | CCCCC(=O)NC(=O)C(c1ccccc1)c1ccccc1 | 83
6 | Cc1nc[nH]c1CSCCNc1cc(=O)cc[nH]1 | 208 to 210
7 | CCCc1c(CSc2ncccc2O)ccc(C(C)=O)c1O | 126
8 | Cc1cc(C)nc(N(C(=O)NS(C)(=O)=O)c2ccccc2)n1 | 186 to 192
9 | O=C(O)CCCCCc1cncc2ccccc12 | 131 to 132
10 | CON1C(=O)[C@H](Cc2c[nH]c3ccccc23)NC(=O)[C@@H]1CC(C)C | 100 to 101
11 | CC(C)c1ccc2nc3ccc(C(=O)OCC#N)cn3c(=O)c2c1 | 186 to 188
12 | CN1CCCC1=NC(=O)Nc1ccc(F)cc1 | 113 to 115
13 | O=C(Nc1ccc(N2CCN(Cc3ccc[nH]3)CC2)cc1)c1ccccc1-c1ccc(C(F)(F)F)cc1 | 191 to 193
14 | CC(C)(C(=O)O)c1ccc(CCN2CCC(c3nc4ccccc4n3CCO)CC2)cc1 | 218
15 | COc1cc(-c2ncn(Cc3ccccc3)c2-c2scc(OC)c2OC)cc(OC)c1OC | 114 to 115
16 | COC(=O)C(C)(C)Cc1c(C(=O)c2ccc(Cl)cc2)c2ccc(OC(=O)c3ccc(Cl)cc3)cc2n1C | 138
17 | CC(C)(C)c1ccc(C(=O)Nc2ccc3oc4c(c3c2)CCCC4)cc1 | 185 to 186
18 | CCOC(=O)c1ncc2[nH]c3ccc(Br)cc3c2c1COC | 207 to 209
19 | COc1ccc(S(N)(=O)=O)cc1C(O)CN=[N+]=[N-] (centres undefined) | 122
20 | N#Cc1ccc(-c2cn(-c3ccc(Br)cc3)cn2)cc1 | 178 to 185
21 | Cn1ccc2c3c(C=O)c4ccccc4cc3ccc21 | 175 to 176
22 | Fc1ccccc1-c1cn([C@H]2CN3CCC2CC3)nn1 | 94
23 | CC1(C)C=C(CCl)CS1(=O)=O | 59 to 60
24 | COCCc1nc2c(N)nc3ccccc3c2n1CCCNC(=O)OC(C)(C)C | 174 to 176
25 | CC(=O)C1(O)CCC2C3C=C(Cl)C4=CC(=O)OCC4(C)C3CCC21C (centres undefined) | 218 to 221

Row | SMILES | melting point [°C]
26 | N#Cc1c(C(F)(F)F)nn(-c2c(Cl)cc(C(F)(F)F)cc2Cl)c1Br | 85 to 87
27 | CCCO[Si](C)(CCN=C(O)C1(C)C(C)(C(=O)O)C(C)(C(=O)O)C1(C)C(O)=NCC[Si](C)(OCCC)OCCC)OCCC (centres undefined) | 151
28 | CN(C)C(=O)Nc1ccc(SCc2nc(Cl)ccc2Cl)cc1 | 112 to 114
29 | COc1cc2nc(SC)c(C#N)c(C)c2cc1OCc1ccccc1 | 171 to 174
30 | O=C(Cl)c1cc(Cl)cc2c1OCCO2 | 140
31 | COCCCc1cc(F)c2ncc(C(=O)NCc3ccc(Cl)cc3)c(O)c2c1 | 189 to 192
32 | CC(C)(C)OC(=O)NCC1C2CN(C(=O)C(O)(c3ccccc3)C3CCCC3)CC12 (centres undefined) | 76 to 79.6
33 | CN(C)C(=O)Cc1nc(-c2ccncc2)nc2c1c1ccc(Cl)cc1n2C | 231 to 232
34 | CC(=O)OC1CSC(Sc2cc(C(F)(F)F)cc(C(F)(F)F)c2)C(OC(C)=O)C1OC(C)=O (centres undefined) | 201
35 | NC(=O)Cn1ccc2cccc(NC(c3ccc4c(cnn4-c4ccc(F)cc4)c3)C(F)(F)F)c21 (centres undefined) | 105
36 | COc1cc(OC)c2sc(-c3c(F)cccc3F)nc2c1 | 136 to 138
37 | Cc1cccc(C)c1NC(C)CN(C)C=O (centres undefined) | 69.5 to 72
38 | CCCC(O)C(C)C(=O)NCc1ccccc1 (centres undefined) | 114 to 115
39 | O=C(c1ccc(Cl)cc1)c1cc2ccccc2cc1O | 135 to 137
40 | O=C(CS(=O)Cc1ccc2c(c1)OCO2)NO (centres undefined) | 206
41 | O=c1ccc(-c2c(-c3ccccc3)nn3ccccc23)nn1C1CN2CCC1CC2 (centres undefined) | 191 to 193
42 | OC(CCSC(=S)Nc1ccc(Cl)cn1)c1ccc(F)cc1 (centres undefined) | 86
43 | O=C1Cc2cc(Cl)cc(C(=O)c3ccc(F)cc3)c2N1 | 222 to 225
44 | C[C@H]1C(=O)NC(=O)N1CC(=O)Nc1c2c(nc3ccccc13)CCCC2 | 260 to 263
45 | Fc1cc(I)ccc1Nc1c(-c2nnc(NCCN3CCOCC3)o2)ccc(F)c1F | 77 to 80
46 | CCOC(=O)C1=C(N)NC(N)=C(C(=O)OCC)C1c1cccc([N+](=O)[O-])c1 | 175 to 176
47 | CC(=O)N1CCc2cc(C3=NNC(=O)CC3C)ccc21 (centres undefined) | 258 to 261
48 | COC(=O)CCc1cc2cc(Cl)ccc2n1S(=O)(=O)c1ccc2ncsc2c1 | 134 to 138
49 | CCOC(=O)COC(=O)c1cc(-n2nc3ccc(Cl)cn3c2=O)c(F)cc1Cl | 62 to 65
